pIC50: −log10 of the molar value. Read-outs that look alike come from different tables or passages of the source.
Tests used:
[1] = biological target: Cys242 in human PIK3CA (157-299) (Homo sapiens (Human), UniProt P42336); test: Covalent modification assay using MALDI-TOF MS; format: biochemical; conditions: 4 h reaction time point
Procedure, shortened: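 PIK3CA (157-299) at 3.33 μM or 1 μM in 20 mM HEPES, 150 mM NaCl, 2 mM MgCl2, pH 7.3 was incubated with compound (from 10 mM DMSO stocks) in the dark at room temperature for 15 min, 30 min, 2 h or 4 h. Linear-mode MALDI-TOF peak heights gave percent modification.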

[2] = tested on: pAKT in BT474 cells; test: Cell-based pAKT HTRF assay in BT474 cells; conditions: BT474 cells, 4 hr incubation, Compounds 10-999, read-out: pAKT inhibition IC50 in BT474 cells
Procedure, shortened: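 Cells are seeded on day 1 and dosed on day 2 with a 9-point curve (3 μM top, 3-fold). After 4 hr they are lysed and the lysate is mixed with d2- and Eu Cryptate-labelled antibodies. HTRF is read after 4–24 h at room temperature.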

[3] = 3.33 μM protein target, 1:7.5 protein to compound ratio (compounds 1-852)
[4] = 1 μM protein target, 1:5 protein to compound ratio (compounds 853-1279)

Sequence of Cys242 in human PIK3CA (157-299) (P42336 157-299): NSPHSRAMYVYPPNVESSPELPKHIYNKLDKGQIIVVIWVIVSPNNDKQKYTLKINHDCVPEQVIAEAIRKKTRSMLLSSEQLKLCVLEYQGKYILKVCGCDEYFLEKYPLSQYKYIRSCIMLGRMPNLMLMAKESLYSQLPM

SMILES | pIC50 [2] | pIC50 ([2]; Homo sapiens, BT-474) | % of modification [1, 3] | % of modification [1, 4]
C=CC(=O)N1Cc2cc(-c3nc(-c4ccc5c(cnn5C)c4)c4ccsc4c3-c3c(F)cc(F)cc3OCC(C)(C)O)nn2[C@@H](C)C1 [Compound 848] | > 7.00 | – | A (percent of modification of PIK3CA protein ≥75%) | –
C=CC(=O)N1Cc2cc(-c3nc(-c4ccc5c(=O)n(C)ncc5c4)c4ccsc4c3-c3c(F)cc(F)cc3OCCOC)nn2C[C@H]1C [Compound 849] | > 7.00 | – | A (percent of modification of PIK3CA protein ≥75%) | –
C=CC(=O)N1Cc2cc(-c3nc(-c4cc(C)ncn4)c4ccsc4c3-c3c(F)cc(F)cc3OCCOC)nn2CC1C (stereo not drawn) [Compound 850] | > 7.00 | – | A (percent of modification of PIK3CA protein ≥75%) | –
C=CC(=O)N1Cc2cc(-c3nc(-c4ncn(C)n4)c4ccsc4c3-c3c(F)cc(F)cc3OCCOC)nn2CC1C (stereo not drawn) [Compound 851] | > 7.00 | – | A (percent of modification of PIK3CA protein ≥75%) | –
C=CC(=O)N1Cc2cc(-c3nc(-c4ccc5cnncc5c4)c4ccsc4c3-c3c(F)cc(F)cc3OCCO)nn2CC1C (stereo not drawn) [Compound 853] | > 7.00 | – | – | A (percent of modification of PIK3CA protein ≥75%)
C=CC(=O)N1Cc2cc(-c3nc(-c4ccc(N(C)C)nc4)c4ccsc4c3-c3c(F)cc(F)cc3OCCOC)nn2CC1C (stereo not drawn) [Compound 855] | > 7.00 | – | – | A (percent of modification of PIK3CA protein ≥75%)
C=CC(=O)N1Cc2cc(-c3nc(-c4ccc5ncc(=O)n(C)c5c4)c4ccsc4c3-c3c(F)cc(F)cc3OCCOC)nn2CC1C (stereo not drawn) [Compound 856] | > 7.00 | – | – | A (percent of modification of PIK3CA protein ≥75%)
C=CC(=O)N1Cc2cc(-c3nc(N4CCC(N(C)C)CC4)c4ccsc4c3-c3c(F)cc(F)cc3OCCOC)nn2CC1C (stereo not drawn) [Compound 857] | > 7.00 | – | – | A (percent of modification of PIK3CA protein ≥75%)
C=CC(=O)N1CCn2nc(-c3nc(-c4ccc5c(c4)C(=O)N(C)C5)c4ccsc4c3-c3c(F)cc(F)cc3OCCO)cc2C1C (stereo not drawn) [Compound 867] | > 7.00 | – | – | A (percent of modification of PIK3CA protein ≥75%)
C=CC(=O)N1CCn2nc(-c3nc(-c4ccc5c(c4)CN(C)C5=O)c4ccsc4c3-c3c(F)cc(F)cc3OCCO)cc2C1C (stereo not drawn) [Compound 875] | > 7.00 | – | – | A (percent of modification of PIK3CA protein ≥75%)
C=CC(=O)N1CCn2nc(-c3nc(-c4cnc5c(cnn5C)c4)c4ccsc4c3-c3c(F)cc(F)cc3OCCO)cc2C1C (stereo not drawn) [Compound 877] | > 7.00 | – | – | A (percent of modification of PIK3CA protein ≥75%)
C=CC(=O)N1CCn2nc(-c3nc(-c4ccc5c(c4)C(=O)NC5)c4ccsc4c3-c3c(F)cc(F)cc3OCC(C)O)cc2C1C (stereo not drawn) [Compound 879] | > 7.00 | – | – | A (percent of modification of PIK3CA protein ≥75%)
C=CC(=O)N1Cc2cc(-c3nc(-c4ccc(=O)n(CCN(C)C)c4)c4ccsc4c3-c3c(F)cc(F)cc3OCCOC)nn2C[C@H]1C [Compound 880] | > 7.00 | – | – | A (percent of modification of PIK3CA protein ≥75%)
C=CC(=O)N1Cc2cc(-c3nc(-c4cnnc(C)c4)c4ccsc4c3-c3c(F)cc(F)cc3OCC(C)(C)O)nn2[C@@H](C)C1 [Compound 882] | > 7.00 | – | – | A (percent of modification of PIK3CA protein ≥75%)
C=CC(=O)N1Cc2cc(-c3nc(-c4cn(C)cn4)c4ccsc4c3-c3c(F)cc(F)cc3OCC(C)(C)O)nn2[C@@H](C)C1 [Compound 883] | > 7.00 | – | – | A (percent of modification of PIK3CA protein ≥75%)
C=CC(=O)N1Cc2cc(-c3nc(-c4cnc5c(cnn5C)c4)c4ccsc4c3-c3c(F)cc(F)cc3OCCO)nn2C[C@H]1C [Compound 885] | > 7.00 | – | – | A (percent of modification of PIK3CA protein ≥75%)
C=CC(=O)N1CCn2nc(-c3nc(-c4ccc5c(c4)CNC(=O)C5)c4ccsc4c3-c3c(F)cc(F)cc3OCCO)cc2[C@H]1C [Compound 890] | > 7.00 | – | – | A (percent of modification of PIK3CA protein ≥75%)
C=CC(=O)N1CCn2nc(-c3nc(-c4ccc5nncn5c4)c4ccsc4c3-c3c(F)cc(F)cc3OCCO)cc2[C@H]1C [Compound 892] | > 7.00 | – | – | A (percent of modification of PIK3CA protein ≥75%)
C=CC(=O)N1CCn2nc(-c3nc(-c4cnc5c(cnn5C)c4)c4ccsc4c3-c3c(F)cc(F)cc3OC[C@@H](C)O)cc2[C@H]1C [Compound 893] | > 7.00 | – | – | A (percent of modification of PIK3CA protein ≥75%)
C=CC(=O)N1CCn2nc(-c3nc(-c4ccc5c(c4)CCNC5=O)c4ccsc4c3-c3c(F)cc(F)cc3OC[C@@H](C)O)cc2[C@H]1C [Compound 894] | > 7.00 | – | – | A (percent of modification of PIK3CA protein ≥75%)
C=CC(=O)N1CCn2nc(-c3nc(-c4ccc5cnncc5c4)c4ccsc4c3-c3c(F)cc(F)cc3OC[C@@H](C)O)cc2[C@H]1C [Compound 895] | > 7.00 | – | – | A (percent of modification of PIK3CA protein ≥75%)
C=CC(=O)N1CCn2nc(-c3nc(-c4ccc5cnn(C)c(=O)c5c4)c4ccsc4c3-c3c(F)cc(F)cc3OCCOC)cc2[C@@H]1C [Compound 898] | > 7.00 | – | – | A (percent of modification of PIK3CA protein ≥75%)

More lines, main results first:

pIC50 [2] | pIC50 ([2]; Homo sapiens, BT-474) | SMILES | % of modification [1, 3] | % of modification [1, 4]
> 7.00 | – | C=CC(=O)N1Cc2cc(-c3nc(-c4ccc5nn(C)cc5c4)c4ccsc4c3-c3c(F)cc(F)cc3OC)nn2[C@@H](C)C1 [Compound 847] | A (percent of modification of PIK3CA protein ≥75%) | –
– | > 7.00 | C=CC(=O)N1CCn2nc(-c3nc(-c4ccc5c(c4)C(=O)NC5)c4ccsc4c3-c3c(F)cc(F)cc3OCCO)cc2[C@H]1C [Compound 852, 6-((S)-6-((R)-5-acryloyl-4-methyl-4,5,6,7-tetrahydropyrazolo[1,5-a]pyrazin-2-yl)-7-(2,4-difluoro-6-(2-hydroxyethoxy)phenyl)thieno[3,2-c]pyridin-4-yl)isoindolin-1-one] | A (percent of modification of PIK3CA protein ≥75%) | –
> 7.00 | – | C=CC(=O)N1Cc2cc(-c3nc(-c4ccc5c(cnn5C)c4)c4ccsc4c3-c3c(F)cc(F)cc3OC)nn2C(C)C1 (stereo not drawn) [Compound 854] | – | A (percent of modification of PIK3CA protein ≥75%)
> 7.00 | – | C=CC(=O)N1CCn2nc(-c3nc(-c4ccc(=O)n(C)c4)c4ccsc4c3-c3c(F)cc(F)cc3OCCO)cc2C1C (stereo not drawn) [Compound 872] | – | A (percent of modification of PIK3CA protein ≥75%)
6.00 to 7.00 | – | C=C(F)C(=O)N1Cc2cc(-c3nc(-c4ccc5c(cnn5C)c4)c4ccsc4c3-c3c(F)cc(F)cc3OCCOC)nn2CC1C (stereo not drawn) [Compound 873] | – | D (percent of modification <25%)
– | > 7.00 | C=CC(=O)N1CCn2nc(-c3nc(-c4ccc5c(c4)CCNC5=O)c4ccsc4c3-c3c(F)cc(F)cc3OCCO)cc2[C@H]1C [Compound 876, 6-((S)-6-((R)-5-acryloyl-4-methyl-4,5,6,7-tetrahydropyrazolo[1,5-a]pyrazin-2-yl)-7-(2,4-difluoro-6-(2-hydroxyethoxy)phenyl)thieno[3,2-c]pyridin-4-yl)-3,4-dihydroisoquinolin-1(2H)-one] | – | A (percent of modification of PIK3CA protein ≥75%)
> 7.00 | – | C=CC(=O)N1CCn2nc(-c3nc(-c4ccc5c(c4)C(=O)N(C)C5)c4ccsc4c3-c3c(F)cc(F)cc3OCC(C)O)cc2C1C (stereo not drawn) [Compound 878] | – | A (percent of modification of PIK3CA protein ≥75%)
> 7.00 | – | C=CC(=O)N1Cc2cc(-c3nc(-c4ccc5nn(C)cc5c4)c4ccsc4c3-c3c(F)cc(F)cc3OCC(C)(C)O)nn2[C@@H](C)C1 [Compound 881] | – | A (percent of modification of PIK3CA protein ≥75%)
> 7.00 | – | C=CC(=O)N1Cc2cc(-c3nc(-c4cnnc(OCCN(C)C)c4)c4ccsc4c3-c3c(F)cc(F)cc3OCCOC)nn2C[C@H]1C [Compound 884] | – | A (percent of modification of PIK3CA protein ≥75%)
> 7.00 | – | C=CC(=O)N1CCn2nc(-c3nc(-c4cnc5c(cnn5C)c4)c4ccsc4c3-c3c(F)cc(F)cc3OCCOC)cc2[C@@H]1C [Compound 888] | – | A (percent of modification of PIK3CA protein ≥75%)
> 7.00 | – | C=CC(=O)N1CCn2nc(-c3nc(-c4ccc5c(=O)n(C)ncc5c4)c4ccsc4c3-c3c(F)cc(F)cc3OCCO)cc2[C@H]1C [Compound 889] | – | A (percent of modification of PIK3CA protein ≥75%)
> 7.00 | – | C=CC(=O)N1CCn2nc(-c3nc(-c4ccc5c(c4)CNC5=O)c4ccsc4c3-c3c(F)cc(F)cc3OCCO)cc2C1C (stereo not drawn) [Compound 891] | – | A (percent of modification of PIK3CA protein ≥75%)
> 7.00 | – | C=CC(=O)N1CCn2nc(-c3nc(-c4ccc5c(c4)CNC(=O)C5)c4ccsc4c3-c3c(F)cc(F)cc3OC[C@@H](C)O)cc2[C@H]1C [Compound 896] | – | A (percent of modification of PIK3CA protein ≥75%)
> 7.00 | – | C=CC(=O)N1CCn2nc(-c3nc(-c4ccc5nncn5c4)c4ccsc4c3-c3c(F)cc(F)cc3OC[C@@H](C)O)cc2[C@H]1C [Compound 897] | – | A (percent of modification of PIK3CA protein ≥75%)

From US20250230138A1, “COMPOUNDS HAVING A T-STRUCTURE FORMED BY AT LEAST FOUR CYCLES FOR USE IN THE TREATMENT OF CANCER AND OTHER INDICATIONS” (TheRas, Inc., priority 2022, published 2025)
